Data: patent US9232792B2, “Method for promoting plant growth” (SUMITOMO CHEMICAL COMPANY, LIMITED, priority 2011, dated 2016)

Tested on: Rice (cultivar: Nipponbare)
Experiment: Test Example 7: reduction of drought stress by treatment of rice seeds
Type: in vivo
Details: drought 2 days, then 14 days hydroponics
Description: Rice (cultivar: Nipponbare) A blank slurry solution containing 5% (V/V) color coat red (Becker Underwood, Inc.), 5% (V/V) CF-Clear (Becker Underwood, Inc.) and 1% Maxim XL (Syngenta) was prepared. A slurry solution was prepared by dissolving the present compound 1 in the blank slurry solution such that 50 g or 100 g of the compound is applied to each 100 kg of rice seeds. In a 50-ml centrifuge tube (manufactured by AGC TECHNO GLASS CO., LTD.), 0.3 ml of the slurry solution was placed for each 10 g of rice seeds and stirred until the solution was dried, thereby coating the seeds. In addition, seeds were coated with the blank slurry solution and used as seeds for a non-treated group. A filter paper was placed on the holes of a plug tray having 406 holes, and the rice seeds treated above were sown on the filter paper. […] Fourteen (14) days after the treatment, the fresh weight of the overground parts of five test plants in each treated group was measured. The experiment was performed in three replications in each treated group and the average value was calculated. […]

Structure (SMILES): O=C(O)c1cc2cc(C(F)(F)F)ccc2s1 [The present compound 1, 5-(trifluoromethyl)benzo[b]thiophene-2-carboxylic acid]
- fresh weight of the overground part of plants vs non-treated group (seed treatment 50 g per 100 kg of seeds): much heavier
- fresh weight of the overground part of plants vs non-treated group (seed treatment 100 g per 100 kg of seeds): much heavier
